Measurements: patent US20240043427A1 (Gilead Sciences, Inc., priority 2020, published 2024)

Legend:
[1] = molecular target: T1, CD73 (Homo sapiens (Human), UniProt P21589); assay: MDA-MB-231 Cell Based CD73 Activity Assay (DMEM); conditions: MDA-MB-231-GFP cells, DMEM medium with 10% human plasma, 200 uM AMP
Method: MDA-MB-231 Cell Based CD73 Activity Assay (DMEM) MDA-MB-231-GFP cells were seeded in 384-well plates (Greiner 781946) at a density of 3000 cells per well in 50 μL of DMEM medium with 10% HP (human plasma). Cells were plated into assay plate with compounds pre-spotted, for an overnight compound treatment. 50 uL of 400 uM AMP (final concentration will be 200 uM) was added using Bio-tek dispenser. Plates were incubated for 100 mins. […] The samples were analyzed using Rapid fire.

[2] = molecular target: T1, CD73; type: biochemical; conditions: 1 mM NaH2PO4 in enzyme buffer, CD73 0.3 nM, AMP 15 uM

T1 sequence (P21589 27-574): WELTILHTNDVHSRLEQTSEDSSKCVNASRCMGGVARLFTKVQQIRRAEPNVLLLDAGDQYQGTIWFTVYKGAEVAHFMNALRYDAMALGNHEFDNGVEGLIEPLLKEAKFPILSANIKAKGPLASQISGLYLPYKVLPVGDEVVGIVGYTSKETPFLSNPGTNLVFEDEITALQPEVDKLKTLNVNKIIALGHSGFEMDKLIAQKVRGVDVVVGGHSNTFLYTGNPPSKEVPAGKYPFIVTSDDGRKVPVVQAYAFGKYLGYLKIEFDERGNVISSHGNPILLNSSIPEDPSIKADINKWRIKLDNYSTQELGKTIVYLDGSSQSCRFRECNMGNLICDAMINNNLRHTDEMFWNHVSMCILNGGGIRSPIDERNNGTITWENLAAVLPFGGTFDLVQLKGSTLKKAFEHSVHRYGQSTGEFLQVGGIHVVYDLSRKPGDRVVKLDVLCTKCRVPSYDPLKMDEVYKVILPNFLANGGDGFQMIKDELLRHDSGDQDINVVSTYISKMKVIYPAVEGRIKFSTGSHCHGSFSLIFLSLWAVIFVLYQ

SMILES	EC50 [1]	IC50 [2]
CC(C)NC(=O)O[C@@H]1CN(c2cc(-c3c[nH]c(=O)[nH]c3=O)nn3ccnc23)CC1(F)F [Example 534, (R)-1-(6-(2,4-dioxo-1,2,3,4-tetrahydropyrimidin-5-yl)imidazo[1,2-b]pyridazin-8-yl)-4,4-difluoropyrrolidin-3-yl isopropylcarbamate]	5.18 nM	9.8 nM
O=c1[nH]cc(-c2cc(N3C[C@@H](Oc4ccc(OC(F)F)cn4)C(F)(F)C3)c3nccn3n2)c(=O)[nH]1 [Example 332, (R)-5-(8-(4-((5-(difluoromethoxy)pyridin-2-yl)oxy)-3,3-difluoropyrrolidin-1-yl)imidazo[1,2-b]pyridazin-6-yl)pyrimidine-2,4(1H,3H)-dione]	26.9 nM	8.61 nM
N#Cc1cc(F)c([C@H]2C[C@@H]2c2cc(-c3c[nH]c(=O)[nH]c3=O)nn3ccnc23)cc1F [Example 565, 4-((1S,2S)-2-(6-(2,4-dioxo-1,2,3,4-tetrahydropyrimidin-5-yl)imidazo[1,2-b]pyridazin-8-yl)cyclopropyl)-2,5-difluorobenzonitrile]	9.24 nM	1.98 nM
COC[C@@H]1CCCN1c1cc(-c2c[nH]c(=O)[nH]c2=O)nn2ccnc12 [Example 477, (S)-5-(8-(2-(methoxymethyl)pyrrolidin-1-yl)imidazo[1,2-b]pyridazin-6-yl)pyrimidine-2,4(1H,3H)-dione]	952 nM	> 250 nM
O=c1[nH]cc(-c2cc(N3CC(c4ccc(OC(F)(F)F)cc4)C3)c3nccn3n2)c(=O)[nH]1 [Example 252, 5-(8-(3-(4-(trifluoromethoxy)phenyl)azetidin-1-yl)imidazo[1,2-b]pyridazin-6-yl)pyrimidine-2,4(1H,3H)-dione]	1240 nM	174 nM
O=c1[nH]cc(-c2cc([C@H]3C[C@@H]3c3cc(C(F)(F)F)c4ncccc4c3)c3nccn3n2)c(=O)[nH]1 (racemic) [Example 141, 5-(8-((1S,2S)-2-(8-(trifluoromethyl)quinolin-6-yl)cyclopropyl)imidazo[1,2-b]pyridazin-6-yl)pyrimidine-2,4(1H,3H)-dione and 5-(8-((1R,2R)-2-(8-(trifluoromethyl)quinolin-6-yl)cyclopropyl)imidazo[1,2-b]pyridazin-6-yl)pyrimidine-2,4(1H,3H)-dione]	24.8 nM	2.1 nM
O=c1[nH]cc(-c2cc([C@H]3C[C@@H]3c3cnc4c(C(F)(F)F)cccc4c3)c3nccn3n2)c(=O)[nH]1 [Example 395, 5-(8-((1S,2S)-2-(8-(trifluoromethyl)quinolin-3-yl)cyclopropyl)imidazo[1,2-b]pyridazin-6-yl)pyrimidine-2,4(1H,3H)-dione]	29.9 nM	2.1 nM
O=c1[nH]cc(-c2cc([C@H]3C[C@@H]3c3ccc4cnc(C(F)(F)F)cc4c3)c3nccn3n2)c(=O)[nH]1 [Example 133, 5-(8-((1S,2S)-2-(3-(trifluoromethyl)isoquinolin-6-yl)cyclopropyl)imidazo[1,2-b]pyridazin-6-yl)pyrimidine-2,4(1H,3H)-dione]	1.6 nM	0.92 nM
O=c1[nH]cc(-c2cc(N3C[C@H](Oc4ccccn4)C(F)(F)C3)c3nccn3n2)c(=O)[nH]1 [Example 537, (S)-5-(8-(3,3-difluoro-4-(pyridin-2-yloxy)pyrrolidin-1-yl)imidazo[1,2-b]pyridazin-6-yl)pyrimidine-2,4(1H,3H)-dione]	2.09 nM	0.42 nM
N#Cc1c(F)cc([C@H]2C[C@@H]2c2cc(-c3c[nH]c(=O)[nH]c3=O)nn3ccnc23)cc1F [Example 557, 4-((1S,2S)-2-(6-(2,4-dioxo-1,2,3,4-tetrahydropyrimidin-5-yl)imidazo[1,2-b]pyridazin-8-yl)cyclopropyl)-2,6-difluorobenzonitrile]	9.73 nM	1.71 nM
O=c1[nH]cc(-c2cc(N3C[C@@H](Oc4ccc(OC(F)(F)C(F)(F)F)cn4)C(F)(F)C3)c3nccn3n2)c(=O)[nH]1 [Example 336, (R)-5-(8-(3,3-difluoro-4-((5-(perfluoroethoxy)pyridin-2-yl)oxy)pyrrolidin-1-yl)imidazo[1,2-b]pyridazin-6-yl)pyrimidine-2,4(1H,3H)-dione]	> 250 nM	34.9 nM
O=c1[nH]cc(-c2cc([C@H]3C[C@@H]3c3ccc(C(F)(F)F)nc3)c3nccn3n2)c(=O)[nH]1 (racemic) [Example 152, 5-(8-((1S,2S)-2-(6-(trifluoromethyl)pyridin-3-yl)cyclopropyl)imidazo[1,2-b]pyridazin-6-yl)pyrimidine-2,4(1H,3H)-dione and 5-(8-((1R,2R)-2-(6-(trifluoromethyl)pyridin-3-yl)cyclopropyl)imidazo[1,2-b]pyridazin-6-yl)pyrimidine-2,4(1H,3H)-dione]	17.5 nM	3.45 nM
O=c1[nH]cc(-c2cc(N3C[C@@H](Oc4ccc(C(F)(F)F)cn4)C(F)(F)C3)c3nccn3n2)c(=O)[nH]1 [Example 530, (R)-5-(8-(3,3-difluoro-4-((5-(trifluoromethyl)pyridin-2-yl)oxy)pyrrolidin-1-yl)imidazo[1,2-b]pyridazin-6-yl)pyrimidine-2,4(1H,3H)-dione]	50.8 nM	12.4 nM
O=c1[nH]cc(-c2cc(N3CC4CC4C3)c3nccn3n2)c(=O)[nH]1 (centres unmarked) [Example 225, 5-(8-(3-azabicyclo[3.1.0]hexan-3-yl)imidazo[1,2-b]pyridazin-6-yl)pyrimidine-2,4(1H,3H)-dione]	106 nM	15.2 nM
O=c1[nH]cc(-c2cc(N3C[C@H](Oc4ncc(C(F)(F)F)cn4)C(F)(F)C3)c3nccn3n2)c(=O)[nH]1 [Example 531, (S)-5-(8-(3,3-difluoro-4-((5-(trifluoromethyl)pyrimidin-2-yl)oxy)pyrrolidin-1-yl)imidazo[1,2-b]pyridazin-6-yl)pyrimidine-2,4(1H,3H)-dione]	11.4 nM	1.34 nM
O=c1[nH]cc(-c2cc([C@H]3C[C@@H]3c3ccc4nc(C(F)(F)F)ccc4c3)c3nccn3n2)c(=O)[nH]1 [Example 131, 5-(8-((1S,2S)-2-(2-(trifluoromethyl)quinolin-6-yl)cyclopropyl)imidazo[1,2-b]pyridazin-6-yl)pyrimidine-2,4(1H,3H)-dione]	6.1 nM	0.78 nM
CC1(C)C(=O)N(CC(F)(F)F)c2cc([C@H]3C[C@@H]3c3cc(-c4c[nH]c(=O)[nH]c4=O)nn4ccnc34)ncc21 [Example 700, 5-(8-((1S,2S)-2-(3,3-dimethyl-2-oxo-1-(2,2,2-trifluoroethyl)-2,3-dihydro-1H-pyrrolo[3,2-c]pyridin-6-yl)cyclopropyl)imidazo[1,2-b]pyridazin-6-yl)pyrimidine-2,4(1H,3H)-dione]	0.54 nM	4.37 nM
O=c1[nH]cc(-c2cc(N3C[C@H](Oc4cc(C(F)(F)F)cnn4)C(F)(F)C3)c3ncc(F)n3n2)c(=O)[nH]1 [Example 666, (S)-5-(8-(3,3-difluoro-4-((5-(trifluoromethyl)pyridazin-3-yl)oxy)pyrrolidin-1-yl)-3-fluoroimidazo[1,2-b]pyridazin-6-yl)pyrimidine-2,4(1H,3H)-dione]	2.8 nM	1.8 nM
CC(C)NC(=O)CC1CN(c2cc(-c3c[nH]c(=O)[nH]c3=O)nn3ccnc23)CC1(F)F (centres unmarked) [Example 659, 2-(1-(6-(2,4-dioxo-1,2,3,4-tetrahydropyrimidin-5-yl)imidazo[1,2-b]pyridazin-8-yl)-4,4-difluoropyrrolidin-3-yl)-N-isopropylacetamide]	38.1 nM	3.98 nM
